In brackets after ≈: the same amount, converted by molar mass.
What was measured:
[1] = tested on: cultured normal keratinocytes; conditions: in vitro; cited from earlier work
[2] = tested on: psoriasis and various cutaneous malignancies; conditions: cited from earlier work
BALB/c mice = experiment: four week topical toxicity study in mice; format: in vivo
Excerpt: Adult female BALB/c mice, 25-31 gm. weight, were obtained from Jackson Laboratories, Bar Harbor, Me. For toxicology tests, the mice were housed 5/cage and received standard lab chow and tap water ad libitum. A 12-hour light/dark cycle in a humidified atmosphere was utilized. Toxicology Study A cohort of 20 mice were de-haired over a 2 cm^2 dorsal area using the topical depilatory agent, Nair® Lotion (Carter Wallace, Inc., New York, N.Y.). […] The daily dose was delivered by a positive displacement pipette (Micro-Man®, Gilson Scientific, Woburn, Mass.).
Using the murine total body surface area conversion nomogram of Freireich et al., the daily doses for the 3 cream concentrations of 1%, 5% and 10% were 71.4 mg/m^2, 357 mg/m^2, 714 mg/m^2. For the total four week period, the cumulative doses were 1.43 g/m^2, 7.14 g/m^2 and 14.28 g/m^2. […] The skin application sites were observed daily for evidence of any local toxicity (erythema, induration or ulceration) and the animals were weighed weekly. At the end of the four week treatment period, the mice were sacrificed by rapid cervical dislocation and blood samples were obtained for quantifying renal function (BUN, creatinine), hepatic function (SGOT-SGPT, bilirubin), electrolytes (Na^+ K^+ Cl^-, ^- HCO3^-), hematologic indices (WBC with differential, RBC, platelets) and glucose (Animal Diagnostic Laboratories,Tucson, Ariz.).

[3] = chemical stability of α-DFMO in cream, HPLC; format: physicochemical; conditions: Vanicream, 4° C., six month time point; 262800 min
Description: The reverse phase (C-18 column, Alitech Associates, 150 mm×4.6 mm, […]) assay was performed with a 30 minute gradient elution using two mobile phases (A and B) containing aqueous buffer and acetonitrile, respectively. Mobile phase A contained 100 mM sodium acetate, 15 mM triethylamine, and […] sodium EDTA dissolved in water at pH 5.0. Mobile phase B was acetonitrile UV® (Burdick & Jackson, Muskegon, Mich.). The starting proportion, A:B, was 92:8, at 18 min. it was 80:20; at 19-21 min. 40:60; and at 22-30 min. 92:8 [21]. The mobile phase was pumped at 1.2 mL/min. using a Perkin Elmer Biocompatible Binary Pump, a Hitachi AS-2000 Autosampler and a Hewlett Packard Series 1050 Solvent Programmer.
For the stability assays, the 10% cream formulation was stored at 4° C. for up to 6 months and 10 μL aliquots were removed weekly and analyzed by HPLC after extraction using 1 mL distilled water.

mouse skin [4] = experiment: in vitro transdermal penetration, mouse skin (diffusion cells); format: in vitro ADME, BALB/c mice
in vitro = conditions: skin, topical or ocular
Description: (§1) These were minced by scissors and then sonicated for 30 seconds in 100 μL of (0.4 m) HClO4 containing 10 mM internal standard GABA. To this mixture, 100 μL of water was added and the contents were then centrifuged at 10,000×G for 3 min. A 10 μL aliquot of supernatant was added to 40 μL of sodium tetraborate solution (pH 9.3) and mixed with […] the derivatizing agent 6-aminoquinolyi-N-hydroxysuccinimidyl carbamate. This mixture was then heated for 10 min. at 50° C. and a 20 μL aliquot was injected into the HPLC.

human skin [5] = experiment: in vitro
Description: as §1

mouse skin [6] = experiment: α-DFMO content of mouse skin samples; conditions: 10% α-DFMO in Vanicream, 37° C.
Description: as §1

actinic keratoses (AKs) = experiment: phase IIb study, number of actinic keratoses; format: in vivo, human; conditions: 10% (w/w) topical, six months, compared to placebo
Excerpt: (§2) Forty-eight participants with severe actinic keratoses (AKs) on their forearms (i.e. at least ten well circumscribed lesions nonlateral, sun-exposed surfaces) completed a one month run-in on placebo ointment applied twice daily to the affected areas. […] After six months of treatment, all measurements were repeated. […] The study was described at the thirty-second annual meeting of the American Society of Clinical Oncology on May 18-21, 1996.

total polyamines = experiment: phase IIb study, total polyamines; format: in vivo, human; conditions: 10% (w/w) topical, six months, compared to placebo
Excerpt: as §2

[7] = phase IIb study, α-DFMO in skin and blood
Excerpt: as §2

[8] = in vivo
Excerpt: as §2

[9] = solubility limit in the vehicle; format: physicochemical; conditions: in the particular vehicle used
Excerpt: Having thus described the invention, it will be apparent to those of skill in the art that modifications can be made within the scope of the invention. […] Also, the vehicle cannot contain absorption enhancers.

ornithine decarboxylase = conditions: time and concentration dependence, reversibility; cited from earlier work
human skin [10] = tested on: human skin
mouse epidermis = conditions: five percent solution, in vitro; cited from earlier work
UVB induced skin cancer = conditions: cited from earlier work
[11] = oral, single 0.5 g/m^2 dose given daily, cited from earlier work
skin ODC = conditions: five of seven subjects, 6 hours after oral dosing, 0.5 g/m^2; cited from earlier work
psoriatic lesions = conditions: cited from earlier work
[12] = oral, humans; cited from earlier work
human skin [13] = experiment: in vitro transdermal penetration, human skin (diffusion cells); conditions: 24 hours, 37° C., 10% α-DFMO
[14] = ten percent cream with absorption enhancer, ten patients

## CC(/C=N/NC(=N)N)=N\NC(=N)N [MGBG, mitoguazone]
[1]
  proliferation of cultured normal keratinocytes: decrease the proliferation
[2]; in vivo
  skin irritation: highly irritating
[2]; topically or intralesionally
  therapeutic effects in psoriasis and various cutaneous malignancies: produces therapeutic effects

## NCCC[C@](N)(C(=O)O)C(F)F [α-DFMO, alpha-difluoromethylornithine]
BALB/c mice; mouse, in vivo
  drug related alterations in weight gain: without drug related alterations in weight gain
  hair regrowth: proceeded normally
  local skin irritation: no evidence of local skin irritation
  serum enzymes, electrolytes or hematologic parameters: no alterations
BALB/c mice; topical 1%, 5% or 10% cream, through the study period
  survival: survived through the study period
BALB/c mice; topical formulation
  toxicity in mice (summary): nontoxic in mice
[3]
  loss of α-DFMO: < 1%
Mouse skin [4]
  uptake into and penetration through mouse skin: significant α-DFMO uptake into and penetration through mouse skin
Mouse skin [4]; 10% α-DFMO in Vanicream, mice, vs 5% α-DFMO with azone
  degree of transdermal penetration versus azone-containing formulation: substantially less
Mouse skin [4]; mouse skin, 10% α-DFMO formulation in Vanicream
  calculated penetration rate: 3.6 μg/cm^2 /hour
Mouse skin [4]; mouse skin, 37° C., 24 hours, 10% α-DFMO
  mean percent uptake (transdermal penetration): 61.53 % of the applied dose
Mouse skin [4]; mouse skin, 37° C., Vanicream
  time of maximal transdermal penetration: 24 h
Mouse skin [4]; mouse skin, hydrophilic ointment U.S.P., 37° C.
  time of maximal penetration: 12 h
In vitro; human
  concentration at 24 h: 323000 ng/g
In vitro; mouse
  concentration at 4 h: 7.25e+06 ng/g
Human skin [5]
  intradermal levels: substantial intradermal levels
  time of peak uptake into human skin: 24 h
Human skin [5]; human, skin, topical or ocular
  concentration: 1360 µM
Mouse skin [6]
  time of peak uptake into mouse skin: 4 h
Actinic keratoses (AKs)
  reduction in the number of AKs: 21%
Total polyamines
  suppression of total polyamines: 21%
[7]; 10% (w/w) topical, six months
  α-DFMO in blood: not detected in blood
[7]; in vivo
  systemic uptake: no systemic uptake
  treated forearms with high DFMO skin levels: thirteen
[8]
  participants with moderately severe skin rash: one
  participants with skin rash in the area of DFMO application: Four
  systemic toxicities: no systemic toxicities
[9]
  solubility: ~220 mg/mL (≈ 1210 mM)
Ornithine decarboxylase
  inhibition of ornithine decarboxylase: time and concentration dependent but is irreversible
Human skin [10]
  time until transdermal human skin penetration apparent: > 20 h
Mouse epidermis
  putrescine levels: twenty-five
  spermine and spermidine levels: not affected
  synthesis of DNA: blocks the synthesis of DNA
UVB induced skin cancer; 1% drinking water solution
  body weight loss: 16%
  hyperactivity: sound-induced hyperactivity
UVB induced skin cancer; 1% solution in drinking water, reduced from 38%
  UVB induced skin cancer incidence: 9%
UVB induced skin cancer; oral α-DFMO regimen, 1% in drinking water
  UVB-induced immunosuppression: prevented UVB-induced immunosuppression
[11]
  plasma concentration×time product: 311 μm×hr
  terminal phase half life: 3.5 h
[11]; read-out: peak α-DFMO plasma concentrations
  Cmax: 47.1 µM
Skin ODC
  reduction in skin ODC levels: ≥ 50%
Psoriatic lesions; human, in vivo
  systemic uptake: systemic uptake in the patients
Psoriatic lesions; [14]
  improvement in psoriatic lesions: marginal improvement
  reduction of cutaneous spermine levels: sixty-six
[12]
  ototoxicity: associated with ototoxicity
Human skin [13]
  degree of penetration: 0.7 % of the applied concentration

— patent US5851537A (priority 1997, dated 1998)
